Laboratory results published in patent US7846934B2, “Furo[3,2-B] pyrrol-3-one derivatives and their use as cysteinyl proteinase inhibitors” (Amura Therapeutics Limited, priority 2007, dated 2010).

Columns and labels:
human osteoclasts [1] = assay: Human osteoclast resorption assay; assay type: cell-based; settings: for inhibition at 1 µM: Homo sapiens, Osteoclast, read-out: Cell-based % Inh. @ 1 μM Human
Description: Bone resorption was studied using a model where human osteoclast precursor cells were cultured on bovine bone slices for 9 days and allowed to differentiate into bone-resorbing osteoclasts. The formed mature osteoclasts were then allowed to resorb bone. The assay was performed by Pharmatest Services Ltd, Itäinen Pitkakatu 4C, Turku, Finland. After the culture period, bone collagen degradation products were quantified from the culture medium as an index of bone resorption. Inhibitor compounds were added into the cell cultures after the differentiation period and their effects on the resorbing activity of mature osteoclasts were determined. The studies included a baseline group without added compounds and a positive control group where a potent cathepsin K inhibitor E-64 was added.
Human peripheral blood monocytes were suspended to culture medium and allowed to attach to bovine bone slices. The bone slices were transferred into 96-well tissue culture plates containing culture medium with appropriate amounts of important growth factors favouring osteoclast differentiation, including M-CSF, RANK-ligand and TGF-β. The cells were incubated in a CO2 incubator in humidified atmosphere of 95% air and 5% carbon dioxide at 37° C. At day 7 when osteoclast differentiation was complete, the culture medium was replaced with culture medium containing conditions favouring osteoclast activity. The cell culture was continued for an additional 2 days, during which the formed mature osteoclasts were allowed to resorb bone in the presence of vehicle, control inhibitor (E64) or test compounds. At the end of the culture, bone collagen degradation products released into the culture medium were determined using a commercially available ELISA method (CrossLaps® for culture, Nordic Bioscience, Herlev, Denmark) as an index of bone resorption (see Bagger, Y. Z. et al, J. Bone. Miner. Res. 14 (suppl. 1), S370).

rat osteoclasts = assay: Rat osteoclast resorption assay; settings: read-out: Cell-based % Inh. @ 1 μM Rat
Description: Bone resorption was studied using a model where mature osteoclasts derived from rat bone were cultured on bovine bone slices for 3 days and allowed to resorb bone in the presence of inhibitor, positive control (E-64) or vehicle. More specifically, tibia, femori and humeri were removed from 1 day old rat pups. The endosteal surfaces of the bones were scraped with a scapelto release osteoclasts into the culture medium and the osteoclasts were allowed to attach to bovine bone slices. After the culture period, bone collagen degradation products were quantified from the culture medium as an index of bone resorption. The assay was performed by Pharmatest Services Ltd, Itäinen Pitkakatu 4C, Turku, Finland.

[2] = Plasma incubations (human plasma stability); settings: 37° C., 25 μM
Description: Human and rat plasma were purchased from Innovative Research Inc. (Southfield. Mich., USA). […] Aliquots were removed at 2 and 60 minutes and quenched with an equal volume of cold acetonitrile. After mixing vigorously, the precipitated protein matter was removed by filtration (Multiscreen Solvinert filter plates, Millipore, Bedford, Mass., USA) and the filtrate analysed by reverse phase HPLC with mass spectrometric detection, using single ion monitoring of the [M+H]^+ species. Metabolic turnover was determined by comparison of peak areas from the ion chromatograms of the parent compound at 2 and 60 minutes and expressed as percent remaining at 1 hour.

[3] = Liver microsomal incubations (HLM stability); settings: human liver microsomes, 25 μM
[4] = molecular target: T1, Human recombinant cathepsin K (Homo sapiens, UniProt P43235); assay: In vitro cathepsin Ki inhibition measurements; assay type: biochemical; settings: Table 1; read-out: In vitro Ki (nM) vs Cath K
T1 construct: B. Turk, Josef Stefan Institute, Ljubljana, Slovenia (academic supplier)
T1 sequence (P43235 115-329): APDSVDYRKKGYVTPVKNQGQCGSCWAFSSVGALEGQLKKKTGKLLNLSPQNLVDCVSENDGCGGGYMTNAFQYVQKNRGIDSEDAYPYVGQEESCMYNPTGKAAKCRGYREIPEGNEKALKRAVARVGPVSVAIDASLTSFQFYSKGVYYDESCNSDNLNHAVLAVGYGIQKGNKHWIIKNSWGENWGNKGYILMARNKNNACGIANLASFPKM
Description: Stock solutions of substrate or inhibitor were made up to 10 mM in 100% dimethylsulfoxide (DMSO) (Rathburns, Glasgow, U.K.) and diluted as appropriately required. In all cases the DMSO concentration in the assays was maintained at less than 1% (vol./vol.). The equilibrium inhibition constants (Ki^SS) for each compound were measured under steady-state conditions monitoring enzyme activity as a function of inhibitor concentration. The values were calculated on the assumption of pure competitive behaviour (Comish-Bowden, A. Fundamentals of enzyme kinetics Portland Press; 1995, 93-128).
The apparent inhibition constant (Ki) for each compound was determined on the basis that inhibition was reversible and occurred by a pure-competitive mechanism. The Ki values were calculated, from the dependence of enzyme activity as a function of inhibitor concentration, by direct regression analysis (Prism v 3.02) using Equation 2 (Cornish-Bowden, A., 1995).
In situations where the apparent dissociation constant (Ki^app) approached the enzyme concentrations, the Ki^app values were calculated using a quadratic solution in the form described by Equation 3 (Morrison, J. F. Trends Biochem. Sci., 7, 102-105, 1982; Morrison, J. F. Biochim. Biophys. Acta, 185 269-286, 1969; Stone, S. R. and Hofsteenge, J. Biochemistry, 25, 4622-4628, 1986).
Curves were fitted by non-linear regression analysis (Prism) using a fixed value for the enzyme concentration. Equation 4 was used to account for the substrate kinetics, where ‘Ki’ is the inhibition constant, ‘[S0]’ is the initial substrate concentration and ‘KM^app’ is the apparent macroscopic binding (Michaelis) constant for the substrate (Morrison, 1982).

[5] = LogD determinations (shake-flask, octanol/PBS); settings: 1-octanol/phosphate buffered saline, pH 7.4
Description: LogD(PBS) determinations were performed in 96 well microtitre plates using a miniaturised “shake-flask” method. […] The plates were then capped and mixed vigorously for 1 hour on a microtitre plate shaker, after which they were left to stand, allowing the PBS and octanol phases to separate. The PBS layer was analysed by reverse phase HPLC with mass spectrometric detection, using single ion monitoring of the [M+H]^+ species.
[formula] Where AUCstd and AUCpbs are the peak areas from the standard and test ion chromatograms respectively.

human osteoclasts [6] = settings: literature value; cited from earlier work

Compound	inhibition at 1 µM (human osteoclasts [1])	inhibition at 1 µM (rat osteoclasts)	Human Plasma Stability % rem. @ 1 H [2]	HLM % rem. @ 1 hr [3]	Ki [4]	Cell-based % Inh. @ 1 μM Human (human osteoclasts [1])	LogD pH 7.4	logD at 1 h [5]	Cell-based % Inh. @ 1 μM Human (Lit.) (human osteoclasts [6])
CC(C)C[C@H](NC(=O)c1ccc(N2CCN(C)CC2)cc1)C(=O)N1CC[C@H]2OCC(=O)[C@H]21 [Example 1, 4-(4-methylpiperazin-1-yl)-N-((S)-4-methyl-1-oxo-1-((3aS,6aR)-3-oxodihydro-2H-furo[3,2-b]pyrrol-4(5H, 6H, 6aH)-yl)pentan-2-yl)benzamide, reference compound]	55%	43%	95%	95%	–	–	–	–	–
N-((S)-1-cyclopentyl-2-oxo-2-((3aS,6aR)-3-oxodihydro-2H-furo[3,2-b]pyrrol-4(5H,6H,6aH)-yl)ethyl)-4-(4-propylpiperazin-1-yl)benzamide [Example 17]	–	–	–	–	7 nM	>80%	1.55	–	–
CN1CCN(c2ccc(C(=O)N[C@H](C(=O)N3CC[C@H]4OCC(=O)[C@H]43)C3CCCCC3)cc2)CC1 [Example 2, N-((S)-1-cyclohexyl-2-oxo-2-((3aS,6aR)-3-oxodihydro-2H-furo[3,2-b]pyrrol-4(5H,6H,6aH)-yl)ethyl)-4-(4-methylpiperazin-1-yl)benzamide]	74 to 76%	0%	99%	91%	14 nM	76%	–	1.21	–
CC(C)C[C@H](NC(=O)c1ccc(C(C)(C)C)cc1)C(=O)N1CC[C@H]2OCC(=O)[C@H]21 [reference compound]	–	–	75%	70%	–	–	–	–	Lit. 60%
CN1CCN(c2ccc(C(=O)N[C@H](C(=O)N3CC[C@H]4OCC(=O)[C@H]43)C3CCCC3)cc2)CC1 [Example 3, N-((S)-1-cyclopentyl-2-oxo-2-((3aS,6aR)-3-oxodihydro-2H-furo[3,2-b]pyrrol-4(5H,6H,6aH)-yl)ethyl)-4-(4-methylpiperazin-1-yl)benzamide]	74 to 76%	60%	97%	91%	2 nM	74%	–	0.78	–
